# In patent EP0270317A2, “Pharmaceutical compositions for the treatment of diseases caused by viruses” (Kabushiki Kaisha Ueno Seiyaku Oyo Kenkyujo, priority 1986, dated 1988):
# Tested on: HTLV-III
# Assay: inhibition of viral infection, MT-4 cells infected with HTLV-III, time course (Example 18)
# Type: cell-based
# Settings: sole use of 10 nM AZT or 5 µg/ml dextran sulfate; day 9
# Method: AIDS virus HTLV-III was challenged to established human T-lymphocyte culture cells MT-4 and the cell suspension and virus particles were incubated at 37°C for 1 hour. The cells were then washed with phosphate buffered saline once and cultured with or without various doses of the test substances in RPMI-1640 medium at 37°C under 5 % CO₂ in an incubator.
# MT-4 cells infected with HTLV-III were destructed as the virus proliferated, resulting in decrease of viable cells. Prior to the cytolysis by viral cytopathic effect, the cells infected with HTLV-III which were detectable by indirct immuno fluorescence method appeared. On day 12, number of the living cells was counted to know the extent of infection, and rate of the infected cells was determined by indirect immuno-fluorescence method using an antibody having specificity to the virus specific antigen. As the test substances, 3ʹ-azido-3ʹ-deoxythymidine (AZT) and dextran sulfate(M.W. 7000 - 8000, S-content 17 - 20%) (DS) were used.
# In the same procedure as in Expample 7, the MT-4 cells infected with HTLV-III were cultured in medium and the changes in the number of viable cells and the rate of the infected cells were recorded in time course. […]
smiles,measurement,value
"Cc1cn([C@H]2C[C@H](N=[N+]=[N-])[C@@H](CO)O2)c(=O)[nH]c1=O [AZT, 3ʹ-azido-3ʹ-deoxythymidine]",infection,100%
